{"source": "paper PMC11566621", "about": "(Stem Cell Research & Therapy, 2024)", "biological_target": "KLF4 (Kruppel-Like Factor 4) (Homo sapiens, UniProt O43474)", "sequence (O43474 whole entry)": "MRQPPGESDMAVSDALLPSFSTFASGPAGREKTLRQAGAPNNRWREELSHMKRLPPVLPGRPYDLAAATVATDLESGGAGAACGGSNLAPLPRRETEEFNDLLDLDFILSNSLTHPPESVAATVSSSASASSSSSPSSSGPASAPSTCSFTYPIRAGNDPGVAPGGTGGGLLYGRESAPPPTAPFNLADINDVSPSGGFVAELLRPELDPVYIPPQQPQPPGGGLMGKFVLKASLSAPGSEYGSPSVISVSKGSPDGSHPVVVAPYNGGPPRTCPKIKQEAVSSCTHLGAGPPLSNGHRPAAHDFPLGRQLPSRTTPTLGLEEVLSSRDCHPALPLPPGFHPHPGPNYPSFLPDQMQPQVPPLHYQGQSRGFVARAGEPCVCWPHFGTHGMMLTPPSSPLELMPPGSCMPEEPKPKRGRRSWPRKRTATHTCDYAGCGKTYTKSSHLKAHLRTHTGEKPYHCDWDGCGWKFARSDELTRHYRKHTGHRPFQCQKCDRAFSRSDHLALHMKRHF", "experiment": "SPR", "type": "binding"}
{"smiles": "C[C@@H]1O[C@@H](O[C@H]2C(=O)c3c(O)cc(O)cc3O[C@@H]2c2ccc(O)c(O)c2)[C@H](O)[C@H](O)[C@H]1O", "note": "[Astilbin]", "values": [{"measurement": "Kd", "value": 48.9, "unit": "µM"}]}
